The test system of test [1] is MDA-MB-231 human breast cancer. Description: MTT cytotoxicity evaluation, MDA-MB-231. The format is cell-based. The settings on record: MDA-MB-231, 24 h exposure then 48 h, MTT assay. The method, then: (§1) A2780, a gift from Dr. Analisa DiFeo (Case Western Reserve University) were cultured in Dulbecco's modified Eagle's media (DMEM, Life Technologies), supplemented with 10% (v/v) fetal bovine serum (FBS, Atlanta Biologicals) and 1% (v/v) penicillin-streptomycin (penstrep, Life Technologies). HeLa (ATCC) were cultured in minimum essential media (MEM, Life Technologies), supplemented with 10% (v/v) FBS, 1% (v/v) penstrep, and 1% (v/v) L-glutamine (Life Technologies). MDA-MB-231, a gift from Dr. Ruth Keri (Case Western Reserve University), were cultured in Roswell Park Memorial Institute (RPMI, Life Technologies) medium supplemented with 10% (v/v) FBS, 1% (v/v) penstrep, and 1% (v/v) L-glutamine. All cells were maintained at 37°C and 5% CO2.
(§2) Confluent cells were removed with 0.05% (w/v) trypsin-EDTA (Life Technologies), seeded at either 2 × 10^3 cells/100 µL/well (MDA-MB-231 and HeLa) or 5 × 10^3 cells/100 µL/well (A2780) in 96-well plates and grown overnight at 37°C, 5% CO2. The next day, cells were washed 2 times with PBS and incubated with free DOX, PVX-DOX, or PEG-PVX-DOX corresponding to 0, 0.01, 0.05, 0.1, 0.5, 1, 5, or 10 µM (A2780, MDA-MB-231) or 0, 0.1, 0.5, 1, 5, 10, 25, or 50 µM (HeLa) DOX for 24 h, in triplicate. A PVX only control corresponded to the amount of PVX in the highest PVX-DOX sample. Following incubation, cells were washed 2 times to remove unbound DOX or particles. […]

For test [2], the system named is MDA-MB-231 tumors. The experiment in a line: MDA-MB-231 tumor-bearing athymic mouse model, intravenous treatment. The format is in vivo, NCR nu/nu mice. The settings on record: 1 mg/kg DOX i.v. every 5 days. The procedure: All experiments were conducted in accordance with Case Western Reserve University's Institutional Animal Care and Use Committee. Female NCR nu/nu mice (6 weeks old) were injected subcutaneously into the right flank with 2 × 10^6 MDA-MB-231 cells suspended in 100 µL of media and Matrigel (Corning) at a 1:1 ratio. When tumors reached 100-200 mm^3, a dosage of 1.0 mg/kg body weight DOX was injected intravenously (this dosage corresponds to 1.0 - 2.0 mg PVX depending on batches). Groups of 4 animals each were treated with PEG-PVX-DOX, free DOX, or PBS. The dosage was normalized to the DOX content. Treatments were performed every 5 days, and a total of 5 treatments was given.
Tumors were measured daily and total volume was calculated using the formula: v = (l × w^2)/2. Mice were euthanized following 25 days of treatment.

The subject of test [3] is A2780 cells. Description: tracking of free DOX and PVX-DOX in cells (fluorescence microscopy). The format is cell-based, human. The conditions noted are these: 1.5 µM DOX, at 48 h. The method, then: A2780 cells were grown to confluency and removed with 0.05% (w/v) trypsin-EDTA. Cells were seeded at 1 × 10^4 cells/500 µL/well on coverslips in untreated 24-well plates and grown overnight at 37°C, 5% CO2. The next day, cells were washed 3 times and incubated with free DOX or PVX-DOX (1.5 µM DOX) for 2, 4, 12, 24, or 48 h. Following incubation, cells were washed 3 times and fixed in DPBS (Corning) containing 5% (v/v) paraformaldehyde (Electron Microscopy Sciences) and 0.3% (v/v) glutaraldehyde (Polysciences) for 10 min at room temperature. Coverslips were mounted using Fluoroshield (Sigma). Slides were imaged on a Zeiss Axio Observer Z1 motorized FL inverted microscope. Fluorescence intensity was analysed as follows using ImageJ 1.47d. All images were identically processed prior to fluorescence intensity measurement. Nuclei were selected and analyzed for fluorescence intensity using the measure feature of ImageJ. For each sample, a minimum of 3 images was analyzed and at least 4 cells were analyzed per image.

Test [4] relates to A2780 human ovarian cancer. Description: MTT cytotoxicity evaluation, A2780. The format is cell-based. The procedure: as §1, §2
Test [5] has as its system B16F10 melanoma cells. The experiment in a line: MTT cell viability assay, B16F10. The format is cell-based, murine. The conditions noted are these: Mus musculus, B16-F10, 24 h exposure then 48 h. The procedure: B16F10 cells (ATCC) were cultured in Dulbecco's modified Eagle's media (DMEM, Life Technologies), supplemented with 10% (v/v) fetal bovine serum (FBS, Atlanta Biologicals) and 1% (v/v) penicillin-streptomycin (penstrep, Life Technologies). Cells were maintained at 37°C, 5% CO2. Confluent cells were removed with 0.05% (w/v) trypsin-EDTA (Life Technologies), seeded at 2 x 10^3 cells/100µL/well in 96-well plates, and grown overnight at 37°C, 5% CO2. The next day, cells were washed 2 times with PBS and incubated with free DOX or PVX-DOX corresponding to 0, 0.01, 0.05, 0.1, 0.5, 1, 5, or 10 µM DOX for 24 h, in triplicate. A PVX only control corresponded to the amount of PVX in the highest PVX-DOX sample. Following incubation, cells were washed 2 times to remove unbound DOX or particles. Fresh medium (100 µL) was added and cells were returned to the […] incubator for 48 h.
In general terms: Formazan colour is commonly taken as a measure of viable cells.

The subject of test [6] is HeLa human cervical cancer. Description: MTT cytotoxicity evaluation, HeLa. The format is cell-based. The conditions noted are these: 24 h exposure then 48 h, MTT assay. The procedure:
as §1, §2

Usually IC50 stands for the midpoint of a concentration-inhibition curve.

For the compound `COc1cccc2c1C(=O)c1c(O)c3c(c(O)c1C2=O)C[C@@](O)(C(=O)CO)C[C@@H]3O[C@H]1C[C@H](N)[C@H](O)[C@H](C)O1` [DOX, doxorubicin], the concentration for half-maximal inhibition (IC50) in test [1] was found to be 130 nM; in test [4] (Homo sapiens, A2780, 24 h exposure then 48 h, MTT assay), 220 nM; in test [5], 280 nM; in test [6], 1600 nM. Further, the “day post first treatment from which differences to PBS were statistically significant” value in test [2] (p<0.05) was more than 22 days. Moreover, the “tumor volumes smaller than the PBS control” value in test [2] (at the end of the treatment, 5 injections) was determined as 2.1 times. Also, the drug-induced apoptosis entry in test [3] is listed as “apparent”. In addition, the “cell killing effectiveness relative to PVX-DOX” value in test [4] (A2780, MTT assay) turned out to be 4 times.

These data come from patent EP3592343B1, “CANCER IMMUNOTHERAPY USING VIRUS PARTICLES” (Case Western Reserve University, priority 2017, dated 2018).
